Data from patent US11911442B2, “Use of soluble pro(renin) receptor to treat metabolic disorders and related conditions” (priority 2017, dated 2024).

How the values were obtained:
pGL3-PRR = assay: PRR-luciferase (pGL3-PRR) reporter assay in mpkCCD cells; type: cell-based, murine; details: transfected mpkCCD cells, 10 μM, 24 h
Experimental: The effect of […] on PRR expression was tested in […] cells. These cells were grown to confluence in six-well plates. After 12-h serum deprivation, the cells were treated with vehicle or 10 μM TO901317 for 24 h and then were harvested for analysis of PRR expression and sPRR release. In a separate experiment, […] cells at 50% density were transiently transfected with a construct containing the luciferase gene under the control of the 2,016-bp 5' flanking region of the PRR gene. Upon confluence, the transfected cells were treated for 24 h with vehicle or 10 μM TO901317 and then were harvested for analysis of luciferase activity. Genomic DNA was extracted from rat tail using a Tissue DNA kit ([…]-01; Promega). A 2,016-bp fragment of the 5' flanking region of the PRR gene (GenBank accession no. NM_001007091; 1,941±75 bp) was amplified from the rat genomic DNA by PCR and subcloned to the pGL3-Basic reporter vector (Promega) using NheI and BgIII restriction sites; this construct was termed “pGL3-PRR.” A 2,084-bp fragment of the 5' flanking region of the AQP2 gene (GenBank accession no. […] Qiagen). […] The vehicle-treated group served as a control. The luciferase activities were measured using a luciferase assay system (Promega), and luminescence was detected by using an illuminometer (BMG FLUOstar OPTIMA).

C57BL6 mice = assay: TO901317-induced diabetes insipidus in C57/BL6 mice; type: in vivo, mouse
Experimental: FIGS. 9A-9I show an initial characterization of diuretic and PRR-inhibitory actions of TO901317 in vivo and in vitro. […] The mice receiving vehicle treatment served as a control. At the end of experiment, 24-h urine collection was performed, followed by analysis of urinary sPRR excretion by ELISA and renal PRR expression by immunoblotting. (A) Urine output (n=30 mice per group). (B) Urinary osmolality (n=15 mice per group). (C) Immunoblotting analysis of renal PRR expression (n=15 mice per group). (D) Densitometric analysis of the immunoblot in C. (E) ELISA analysis of urinary sPRR (n=8 mice per group). (F-I) The effect of TO901317 on PRR expression in cultured CD cells. mpkCCD cells were exposed to vehicle or 10 μM TO901317 for 24 h. The cell lysates were subjected to immunoblotting analysis of PRR protein expression, and the medium was assayed for sPRR concentration by using ELISA and normalized by protein content. In a separate experiment, the cells were transfected with a PRR-luciferase construct, allowed to grown to confluence, and then were treated with vehicle or 10 μM TO901317 for 24 h. (F) Immunoblotting analysis of PRR (n=15 per group). (G) Densitometric analysis of the immunoblot in […]. (H) ELISA analysis of medium sPRR (n=10 per group). (I) The luciferase assay (n=5 per group).
(A) Urine output (n=8 mice per group). (B) Water intake (n=8 mice per group). (C) Water balance (n=8 mice per group). (D) Urinary osmolality (n=8 mice per group). (E) Het (n=8 mice per group).
AQP2 expression was analyzed by immunoblotting and immunostaining. Urinary renin activity was determined by measuring AngI generation, and urinary prorenin/renin concentration was determined by ELISA. (A) Immunoblotting analysis of AQP2 expression (n=15 mice per group). (B) Densitometric analysis of the immunoblots in A. (C) Urinary renin activity (n=8 mice per group). (D) Urinary prorenin/renin excretion (n=8 mice per group). (E) Schematic illustration of the mechanism by which the LXR agonist TO091317 (TO) suppresses PRR transcription and induces DI. LXRs bound to TO091317 function as a […] repressor for the PRR gene, leading to a reduced PRR/sPRR level that decreases AQP2 expression, ultimately causing DI.
Besides their well-recognized role in regulating lipid and glucose metabolism, LXRs are potential regulators of the RAS and fluid balance. […] In the initial experiment, the effects of the LXR agonist TO901317 on fluid homeostasis and on renal PRR and urinary renin levels were examined in mice. A 7-d treatment with TO901317 in C57BL6 mice reduced body weight (32.36±0.63 vs. 28.61±0.36 g, P<0.05) and food intake (4.08±0.19 vs. 3.54±0.15 g, P<0.05), although to a lesser extent. […] The expression of renal PRR protein and the excretion of urinary sPRR were examined by immunoblotting and ELISA, respectively.
In the subsequent experiment, a more detailed analysis of TO901317-induced DI was performed and the causal role of suppressed renal PRR was further examined in this phenomenon. This experiment comprised three groups: control, TO901317-treated, and TO901317+sPRRHis-treated mice. […] Of note, water balance was determined by subtracting urine volume from water intake. AQP2, a major water channel on the apical membrane of the CD, plays a key role in determining urine-concentrating capability. […] ELISA was also performed to determine the prorenin/renin concentration in the urine. Although urinary prorenin/renin excretion was suppressed by TO901317, it was unaffected by sPRRHis (FIG. 11D). […] FIG. 11E provides a schematic illustration of the mechanism by which TO901317 induces DI. Upon binding to TO901317, LXRs function as a transcriptional repressor to inactivate PRR transcription. The reduced PRR/sPRR levels down-regulate AQP2 expression, leading to DI.
Male 10- to 12-wk-old SD rats and C57BL6 mice were purchased from Charles River Laboratories and the Jackson Laboratory, respectively. All animals […] 50 mg kg body weight-1·d-1. […]

PRR = PRR protein expression and sPRR release in mpkCCD cells; type: cell-based, murine; details: 10 μM, 24 h
Experimental: The effect of […] on PRR expression was tested in […] cells. These cells were grown to confluence in six-well plates. After 12-h serum deprivation, the cells were treated with vehicle or 10 μM TO901317 for 24 h and then were harvested for analysis of PRR expression and sPRR release. In a separate experiment, […] cells at 50% density were transiently transfected with a construct containing the luciferase gene under the control of the 2,016-bp 5' flanking region of the PRR gene. Upon confluence, the transfected cells were treated for 24 h with vehicle or 10 μM TO901317 and then were harvested for analysis of luciferase activity. Urinary or medium sPRR was determined using a commercially sPRR enzyme immunoassay (EIA) kit (catalog no. JP27782; Immuno-Biological Laboratories) according to the manufacturer's instructions. Renal tissues were lysed and subsequently sonicated. Protein concentrations were determined using Coomassie reagent. Forty micrograms of protein from each sample were denatured in boiling water, separated by SDS/PAGE, and transferred onto nitrocellulose membranes. Blots were blocked 1 h with 5% nonfat dry milk in Tris-buffered saline (TBS), followed by overnight incubation with primary antibody. […] The blots were quantitated by using Image-Pro Plus (Media Cybernetics). […]

With `O=S(=O)(c1ccccc1)N(CC(F)(F)F)c1ccc(C(O)(C(F)(F)F)C(F)(F)F)cc1` [TO901317] the “suppression of luciferase activity (pGL3-PRR)” value (pGL3-PRR) was 76%, the “urine output, water intake, water balance, urinary osmolality, Hct” value (C57BL6 mice; C57/BL6 mice, TO901317 alone, 7 d) was “polyuria, polydipsia, decreased water balance, hypoosmotic urine, and plasma volume contraction” and the urinary osmolality (C57BL6 mice; C57BL6 mice, 7-d treatment) was “hypoosmotic urine”. The urine output (C57BL6 mice; C57BL6 mice, 7-d treatment) was “severe polyuria”, the “urinary sPRR excretion” value (C57BL6 mice; C57BL6 mice, 7-d treatment, ELISA) was “suppressed consistently” and the “renal PRR expression” value (C57BL6 mice; C57BL6 mice, 7-d treatment, immunoblotting) was “suppressed consistently”. For the same compound, the food intake (C57BL6 mice; C57BL6 mice, 7-d treatment, control 4.08±0.19, P<0.05) was 3.54 ± 0.15 g, the body weight (C57BL6 mice; C57BL6 mice, 7-d treatment, control 32.36±0.63, P<0.05) was 28.61 ± 0.36 g and the “urinary renin activity (generation of AngI)” value (C57BL6 mice; TO901317 alone, 7 d) was “suppressed”. The urinary prorenin/renin excretion (C57BL6 mice; TO901317 alone, 7 d, ELISA) was “suppressed”, the “renal AQP2 expression” value (C57BL6 mice; TO901317 alone, 7 d, immunoblotting) was “significantly reduced” and the “reduction of medium sPRR” value (PRR; ELISA) was 60%. The “reduction of PRR protein expression” value (PRR; immunoblotting) was 85%.
